Results reported in paper PMC5515887, “Ruthenium-conjugated chrysin analogues modulate platelet activity, thrombus formation and haemostasis with enhanced efficacy” (Scientific Reports, 2017).

Key:
[1] = tested on: α-granule secretion in platelets; experiment: P-selectin exposure by flow cytometry (marker for α-granule secretion); format: cell-based, human; settings: PRP; CRP-XL 0.5 μg/mL
Experimental: Platelets primarily contain two types of granules (α- and dense granules) and the activation of platelets releases the granule contents to the external environment, where they play important roles in the stimulation of additional platelets and their recruitment to the growing thrombus. […] However, chrysin affected α-granule secretion only at a minimum concentration of 50 μM in platelets.
Figure 5 Chrysin and its derivatives affect granule secretion in platelets. […] The level of P-selectin (as a marker for α-granule secretion) was quantified using PECy5-labelled anti-human P-selectin antibodies by flow cytometry. […] R represents ‘resting’ platelets. […] Platelets were then activated with 0.5 μg/mL CRP-XL and the ATP release was monitored for 5 minutes by lumi-aggregometry. The traces shown are representative of three separate experiments.

[2] = tested on: human washed platelets; experiment: CRP-XL-induced aggregation of human washed platelets (optical aggregometry); format: cell-based; settings: CRP-XL 0.5 μg/mL
Experimental: To determine the effects of chrysin and thio-chrysin and their Ru-complexes in the modulation of platelet activation, aggregation assays were performed using cross-linked collagen-related peptide (CRP-XL) as a platelet agonist, by optical aggregometry. Firstly, to determine the effects of chrysin and its derivatives on isolated platelets, aggregation assays were performed using human washed platelets (devoid of plasma proteins and other blood cells).
Figure 2 Effects of chrysin and its derivatives in washed platelet aggregation. […] The aggregation traces shown are representative of three separate experiments.
(§1) The preparation of human platelets and aggregation assays were performed using standard protocols as described by us previously, [16]. Briefly, human blood was collected in 3.2% citrate containing vacutainers via venepuncture from healthy, aspirin-free individuals with informed consent in accordance with the methods approved by the University of Reading Research Ethics Committee. All methods were performed in accordance with the relevant institutional and national guidelines and regulations. Blood samples were centrifuged at 102 g for 20 minutes at room temperature to separate the PRP, which was used in aggregation, flow cytometry, static platelet adhesion, calcium mobilisation and clot retraction assays. For the preparation of washed platelets, 50 mL of blood samples were mixed with 7.5 mL of ACD (acid citrate dextrose) (20 g/L glucose, 25 g/L sodium citrate and 15 g/L citric acid) and centrifuged at 102 g for 20 minutes at room temperature. The PRP was carefully aspirated from the other blood cells prior to mixing with 3 mL of ACD and centrifuging at 1413 g for 10 minutes at room temperature. The resulting platelet pellet was re-suspended in modified Tyrodes-HEPES buffer (2.9 mM KCl, 134 mM NaCl, 0.34 mM Na2HPO4.12H20, 1 mM MgCl2, 12 mM NaHCO3, 20 mM HEPES, pH 7.3) and washed by centrifuging again at 1413 g for 10 minutes. The resulting platelet pellet was suspended in modified Tyrodes-HEPES buffer at a density of 4 × 10^8 cells/mL for aggregation, dense granule secretion, cellular uptake studies and calcium mobilisation assays. Human platelet aggregation was performed using CRP-XL as an agonist in the presence and absence of various concentrations of chrysin and its synthetic derivatives by optical aggregometry. A vehicle control [DMSO at a concentration of less than 0.1% (v/v)] was included in all the experiments. Dense granule secretion in platelets was determined by measuring the ATP release using the luciferin-luciferase reagent by lumi-aggregometry (Chrono-Log, USA). SDS-PAGE and immunoblotting analysis were performed using standard protocols. The rabbit anti-phospho-specific antibodies for human AKT pS473, FAK pY397 and Src pY527 were obtained from Abcam, UK and rabbit anti-human 14-3-3ζ (Santa Cruz Biotechnology, USA) was used to detect protein 14-3-3ζ as a loading control in immunoblot assays. The Cy5-conjugated goat anti-rabbit IgG (Life technologies, UK) was used as the secondary antibody.

[3] = tested on: outside-in signalling by integrin αIIbβ3; experiment: Clot retraction assay (outside-in signalling by integrin αIIbβ3); format: cell-based, human; settings: PRP; 50 μM compound; 1 U/mL thrombin; three hours
Experimental: R represents ‘resting’ platelets.
Following fibrinogen binding, integrin αIIbβ3 triggers signalling into the platelets in order to induce clot retraction and promote wound healing. This also represents a late downstream signalling event in the platelet activation process. To determine whether chrysin and its derivatives affect outside-in signalling by integrin αIIbβ3, a clot retraction assay was performed. […] At three hours, the clot obtained with the vehicle control [0.1% (v/v) DMSO] retracted to around 50 mg.
PRP (200 µL) was mixed with 5 µL of red blood cells and the final volume was made to 950 µL with modified Tyrodes-HEPES buffer in the presence and absence of various concentrations of chrysin or its synthetic derivatives. Clot formation was initiated by adding 1 U/mL (50 µL) thrombin. A glass capillary was placed in middle of the tube and the clot retraction was observed over a period of 3 hours at room temperature. Clot weight was measured as a marker for clot retraction after 3 hours.

[4] = tested on: inside-out signalling to integrin αIIbβ3; settings: PRP; CRP-XL 0.5 μg/mL
Experimental: The level of fluorescence obtained with vehicle control was taken as 100% to calculate the extent of inhibition in chrysin and its derivatives-treated samples. R represents ‘resting’ platelets. Cumulative data represent mean ± S.D. (n = 4). […] Following incubation, clotting was initiated by the addition of 1 U/mL thrombin and the clot retraction was monitored for three hours. The remaining clot weight at three hours was measured to analyse the extent of retraction process. The image shown on the right is representative of four separate experiments. *Indicates significance with respect to controls and ^#indicates significance with respect to the respective chrysin concentrations; p values shown (*^,# p < 0.05, **^,## p < 0.01 and ***^,### p < 0.001) are as calculated by one-way ANOVA using Graphpad Prism.
The platelets (PRP) were treated with a vehicle control [0.1% (v/v) DMSO] or with different concentrations of chrysin and its synthetic derivatives prior to activation with CRP-XL (0.5 µg/mL). The levels of fibrinogen binding and P-selectin exposure were measured using FITC-labelled anti-human fibrinogen antibodies (Dako, UK) and PECy5-labelled CD62P antibodies (BD Biosciences, UK), respectively. The median fluorescence intensity was used to assess the levels of fibrinogen binding and P-selectin exposure on the platelet surface. The level of fluorescence obtained with the vehicle control was taken as 100% when compared with the treated samples.

[5] = tested on: human platelet-rich plasma (PRP); experiment: CRP-XL-induced platelet aggregation in human platelet-rich plasma (optical aggregometry); format: cell-based; settings: PRP, CRP-XL 0.5 μg/mL
Experimental: Therefore, to determine the effects of various concentrations of chrysin and its derivatives in the presence of plasma proteins, aggregation assays were performed using human platelet-rich plasma (PRP) and 0.5 μg/mL CRP-XL.
Figure 3 Impact of chrysin and its derivatives on platelet activation in platelet-rich plasma. […] The platelet aggregation was monitored for 5 minutes. The traces shown are representative of three separate experiments.
as §1

Compound	concentrations that significantly inhibit α-granule secretion [1] [µM]	effect on CRP-XL-induced platelet aggregation in washed platelets [2]	effect on clot retraction [3]	concentrations with significantly more effects on fibrinogen binding than the respective concentrations of chrysin [4]	effect on platelet aggregation at lower concentrations ([5]; 6.25 μM and 12.5 μM compound)	effect on platelet aggregation in PRP [5]
Oc1cc(O)c2c(=S)cc(-c3ccccc3)oc2c1 [thio-chrysin]	≥ 25	no significant differences	significant inhibitory effect			
chlorido [(5-oxo-κO)-7-hydroxy-(2-phenyl)-4H-chromen-4-onato-κO] (η6-p-cymene)ruthenium(II) [Ru-chrysin]	≥ 25	inhibited CRP-XL-induced platelet aggregation in a concentration-dependent manner		more than 25 μM	did not significantly affect the platelet aggregation	
Cc1ccc(C(C)C)cc1.Cc1ccc(C(C)C)cc1.[Cl-].[Cl-].[Cl-].[Cl-].[Ru+2].[Ru+2] [Ru-Cl, bis [dichlorido (η^6-p-cymene)] ruthenium(II), reference compound]		failed to affect platelet aggregation				failed to show any inhibitory effects
